Experimental data: ChEMBL document CHEMBL5649169 (ChemMedChem, 2018)

Legend:
Ephrin type-A receptor 5 = Ephrin type-A receptor 5 (Homo sapiens, UniProt P54756); assay: Inhibition of Nano Luc-fused full length C-terminal EPHA5 (unknown origin) expressed in HEK293T cells using NanoGlo as substrate incubated for 2 hrs in presence of tracer by NanoBRET assay; type: cell-based
[1] = target: Rho GDP-dissociation inhibitor 2 (Homo sapiens) (UniProt P52566); also: assay method not described here
[2] = target: ATPase family AAA domain-containing protein 3A (Homo sapiens) (UniProt Q9NVI7); also: assay method not described here
[3] = target: ATP synthase F(1) complex subunit alpha, mitochondrial (Homo sapiens) (UniProt P25705); also: assay method not described here
[4] = target: Aurora kinase B (Homo sapiens) (UniProt Q96GD4); also: assay method not described here
[5] = target: B-cell receptor-associated protein 31 (Homo sapiens) (UniProt P51572); also: assay method not described here
[6] = target: Cilia- and flagella-associated protein 410 (Homo sapiens) (UniProt O43822); also: assay method not described here
[7] = target: Cyclin-dependent kinase 4 (Homo sapiens) (UniProt P11802); also: assay method not described here
Chain of Cyclin-dependent kinase 4 (Homo sapiens) (P11802 whole entry): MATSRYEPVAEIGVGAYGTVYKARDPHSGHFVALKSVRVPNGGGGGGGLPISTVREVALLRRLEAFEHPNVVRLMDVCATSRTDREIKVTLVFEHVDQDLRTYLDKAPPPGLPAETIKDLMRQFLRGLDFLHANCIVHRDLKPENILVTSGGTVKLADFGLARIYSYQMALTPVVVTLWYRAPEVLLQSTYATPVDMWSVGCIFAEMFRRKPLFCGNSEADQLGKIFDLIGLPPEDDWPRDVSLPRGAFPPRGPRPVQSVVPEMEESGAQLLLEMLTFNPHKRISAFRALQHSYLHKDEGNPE

[8] = target: Conserved oligomeric Golgi complex subunit 7 (Homo sapiens) (UniProt P83436); also: assay method not described here
Chain of Conserved oligomeric Golgi complex subunit 7 (Homo sapiens) (P83436 whole entry, one chain of several): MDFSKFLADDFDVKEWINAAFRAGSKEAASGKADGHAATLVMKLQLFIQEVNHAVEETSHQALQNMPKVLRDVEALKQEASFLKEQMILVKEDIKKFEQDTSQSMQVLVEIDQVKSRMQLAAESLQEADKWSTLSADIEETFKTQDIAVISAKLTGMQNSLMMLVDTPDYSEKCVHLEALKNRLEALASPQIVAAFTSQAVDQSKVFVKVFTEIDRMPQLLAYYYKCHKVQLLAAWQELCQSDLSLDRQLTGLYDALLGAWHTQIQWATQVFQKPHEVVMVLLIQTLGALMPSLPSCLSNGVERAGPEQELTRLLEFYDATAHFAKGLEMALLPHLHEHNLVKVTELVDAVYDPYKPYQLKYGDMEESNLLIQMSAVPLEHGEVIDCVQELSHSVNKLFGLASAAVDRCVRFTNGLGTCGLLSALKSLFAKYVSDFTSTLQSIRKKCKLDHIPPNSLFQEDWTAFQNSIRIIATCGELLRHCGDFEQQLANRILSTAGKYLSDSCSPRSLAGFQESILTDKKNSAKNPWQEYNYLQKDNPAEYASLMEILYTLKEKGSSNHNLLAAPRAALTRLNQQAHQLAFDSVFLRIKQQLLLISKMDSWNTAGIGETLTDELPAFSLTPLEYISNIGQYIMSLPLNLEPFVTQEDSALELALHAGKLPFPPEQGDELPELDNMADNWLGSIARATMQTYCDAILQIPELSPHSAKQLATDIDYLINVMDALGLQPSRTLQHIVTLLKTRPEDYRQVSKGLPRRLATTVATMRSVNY

[9] = target: Cytochrome c oxidase subunit 5B, mitochondrial (Homo sapiens) (UniProt P10606); also: assay method not described here
Chain of Cytochrome c oxidase subunit 5B, mitochondrial (Homo sapiens) (P10606 whole entry): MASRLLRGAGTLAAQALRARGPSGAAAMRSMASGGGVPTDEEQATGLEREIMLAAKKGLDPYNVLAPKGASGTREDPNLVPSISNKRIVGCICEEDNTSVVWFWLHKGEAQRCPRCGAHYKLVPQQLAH

Homo sapiens [10] = organism: Homo sapiens; also: assay method not described here
[11] = target: ATP-dependent RNA helicase DHX15 (Homo sapiens) (UniProt O43143); also: assay method not described here
[12] = target: 116 kDa U5 small nuclear ribonucleoprotein component (Homo sapiens) (UniProt Q15029); also: assay method not described here
[13] = target: Eukaryotic initiation factor 4A-I (Homo sapiens) (UniProt P60842); also: assay method not described here
[14] = target: Peptidyl-prolyl cis-trans isomerase FKBP4 (Homo sapiens) (UniProt Q02790); also: assay method not described here
[15] = target: Receptor-type tyrosine-protein kinase FLT3 (Homo sapiens) (UniProt P36888); also: assay method not described here
[16] = target: RNA-binding protein FUS (Homo sapiens) (UniProt P35637); also: assay method not described here
[17] = target: Galactocerebrosidase (Homo sapiens) (UniProt P54803); also: assay method not described here
Chain of Galactocerebrosidase (Homo sapiens) (P54803 whole entry): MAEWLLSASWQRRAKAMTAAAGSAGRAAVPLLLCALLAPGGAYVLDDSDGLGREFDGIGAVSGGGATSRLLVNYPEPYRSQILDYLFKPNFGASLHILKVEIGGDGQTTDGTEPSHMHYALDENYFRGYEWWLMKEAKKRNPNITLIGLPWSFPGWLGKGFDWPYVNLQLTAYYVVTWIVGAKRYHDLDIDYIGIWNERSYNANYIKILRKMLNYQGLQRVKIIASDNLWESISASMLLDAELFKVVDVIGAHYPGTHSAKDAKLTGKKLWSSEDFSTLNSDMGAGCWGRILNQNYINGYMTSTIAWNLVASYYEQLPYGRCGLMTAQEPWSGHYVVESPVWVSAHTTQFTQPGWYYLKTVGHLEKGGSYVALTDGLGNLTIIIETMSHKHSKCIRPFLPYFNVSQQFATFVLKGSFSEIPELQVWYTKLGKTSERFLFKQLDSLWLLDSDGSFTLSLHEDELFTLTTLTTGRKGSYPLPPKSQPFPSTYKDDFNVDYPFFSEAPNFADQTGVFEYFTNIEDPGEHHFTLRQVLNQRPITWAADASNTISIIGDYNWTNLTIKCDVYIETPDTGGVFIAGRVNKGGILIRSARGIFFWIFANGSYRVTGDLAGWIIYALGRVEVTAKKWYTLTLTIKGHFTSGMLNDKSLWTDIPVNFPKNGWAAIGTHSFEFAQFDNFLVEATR

[18] = target: Gem-associated protein 5 (Homo sapiens) (UniProt Q8TEQ6); also: assay method not described here
[19] = target: Golgi apparatus protein 1 (Homo sapiens) (UniProt Q92896); also: assay method not described here
[20] = target: Heterogeneous nuclear ribonucleoprotein L (Homo sapiens) (UniProt P14866); also: assay method not described here
Homo sapiens [21] = organism: Homo sapiens; remark: listed apart in the source; also: assay method not described here
[22] = target: Tyrosine-protein kinase Lck (Homo sapiens) (UniProt P06239); also: assay method not described here
Chain of Tyrosine-protein kinase Lck (Homo sapiens) (P06239 2-509 limits assumed): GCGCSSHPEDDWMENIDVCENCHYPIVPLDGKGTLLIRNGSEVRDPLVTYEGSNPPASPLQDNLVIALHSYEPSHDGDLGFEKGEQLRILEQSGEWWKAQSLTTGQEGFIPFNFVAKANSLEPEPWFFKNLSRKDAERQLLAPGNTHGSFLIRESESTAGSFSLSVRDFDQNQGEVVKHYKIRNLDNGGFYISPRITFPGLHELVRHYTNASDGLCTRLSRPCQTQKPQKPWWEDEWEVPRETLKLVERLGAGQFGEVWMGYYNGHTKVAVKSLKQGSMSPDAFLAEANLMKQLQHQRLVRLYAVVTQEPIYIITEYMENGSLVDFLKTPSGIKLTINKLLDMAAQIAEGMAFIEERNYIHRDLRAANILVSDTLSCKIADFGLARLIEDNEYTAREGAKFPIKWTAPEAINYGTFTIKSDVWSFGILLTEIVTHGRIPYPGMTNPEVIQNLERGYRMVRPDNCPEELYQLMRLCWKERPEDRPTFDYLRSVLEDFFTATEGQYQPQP

[23] = target: L-lactate dehydrogenase A chain (Homo sapiens) (UniProt P00338); also: assay method not described here
[24] = target: LIM domain kinase 1 (Homo sapiens) (UniProt P53667); also: assay method not described here
Chain of LIM domain kinase 1 (Homo sapiens) (P53667 whole entry, looked up, the tested form may be a part): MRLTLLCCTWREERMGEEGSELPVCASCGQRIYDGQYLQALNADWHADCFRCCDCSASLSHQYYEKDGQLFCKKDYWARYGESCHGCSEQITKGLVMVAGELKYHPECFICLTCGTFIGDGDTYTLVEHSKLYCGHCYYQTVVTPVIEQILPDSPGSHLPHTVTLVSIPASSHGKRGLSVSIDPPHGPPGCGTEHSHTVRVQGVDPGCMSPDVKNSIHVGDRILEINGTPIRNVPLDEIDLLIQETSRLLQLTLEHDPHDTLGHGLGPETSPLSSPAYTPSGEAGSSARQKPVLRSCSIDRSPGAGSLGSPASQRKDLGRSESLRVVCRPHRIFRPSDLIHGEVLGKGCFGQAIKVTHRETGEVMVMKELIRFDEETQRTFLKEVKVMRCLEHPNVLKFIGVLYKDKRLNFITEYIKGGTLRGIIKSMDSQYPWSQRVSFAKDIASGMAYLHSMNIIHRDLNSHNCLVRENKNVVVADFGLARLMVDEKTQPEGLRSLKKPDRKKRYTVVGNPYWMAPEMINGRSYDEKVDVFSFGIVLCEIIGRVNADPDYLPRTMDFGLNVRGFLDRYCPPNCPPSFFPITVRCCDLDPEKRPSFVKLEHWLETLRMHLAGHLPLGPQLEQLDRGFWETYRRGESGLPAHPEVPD

[25] = target: Endoplasmic reticulum junction formation protein lunapark (Homo sapiens) (UniProt Q9C0E8); also: assay method not described here
Chain of Endoplasmic reticulum junction formation protein lunapark (Homo sapiens) (Q9C0E8 whole entry): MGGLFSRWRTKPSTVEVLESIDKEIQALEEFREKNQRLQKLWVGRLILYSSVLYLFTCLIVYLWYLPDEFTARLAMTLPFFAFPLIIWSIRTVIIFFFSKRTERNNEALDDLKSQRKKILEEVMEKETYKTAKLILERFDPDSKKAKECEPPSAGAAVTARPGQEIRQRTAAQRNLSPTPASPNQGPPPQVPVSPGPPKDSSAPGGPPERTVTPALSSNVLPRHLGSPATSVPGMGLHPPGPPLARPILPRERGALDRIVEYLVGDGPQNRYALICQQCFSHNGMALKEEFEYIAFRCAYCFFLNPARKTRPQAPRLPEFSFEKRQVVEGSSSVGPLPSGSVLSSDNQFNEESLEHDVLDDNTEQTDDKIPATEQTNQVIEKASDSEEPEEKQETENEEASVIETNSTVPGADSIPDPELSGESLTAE

[26] = target: Mitogen-activated protein kinase kinase kinase 5 (Homo sapiens) (UniProt Q99683); also: assay method not described here
[27] = target: Myosin light polypeptide 6 (Homo sapiens) (UniProt P60660); also: assay method not described here
[28] = target: NADH-ubiquinone oxidoreductase 75 kDa subunit, mitochondrial (Homo sapiens) (UniProt P28331); also: assay method not described here
[29] = target: Non-POU domain-containing octamer-binding protein (Homo sapiens) (UniProt Q15233); also: assay method not described here
[30] = target: High affinity nerve growth factor receptor (Homo sapiens) (UniProt P04629); also: assay method not described here
[31] = target: Proliferation-associated protein 2G4 (Homo sapiens) (UniProt Q9UQ80); also: assay method not described here
Chain of Proliferation-associated protein 2G4 (Homo sapiens) (Q9UQ80 whole entry): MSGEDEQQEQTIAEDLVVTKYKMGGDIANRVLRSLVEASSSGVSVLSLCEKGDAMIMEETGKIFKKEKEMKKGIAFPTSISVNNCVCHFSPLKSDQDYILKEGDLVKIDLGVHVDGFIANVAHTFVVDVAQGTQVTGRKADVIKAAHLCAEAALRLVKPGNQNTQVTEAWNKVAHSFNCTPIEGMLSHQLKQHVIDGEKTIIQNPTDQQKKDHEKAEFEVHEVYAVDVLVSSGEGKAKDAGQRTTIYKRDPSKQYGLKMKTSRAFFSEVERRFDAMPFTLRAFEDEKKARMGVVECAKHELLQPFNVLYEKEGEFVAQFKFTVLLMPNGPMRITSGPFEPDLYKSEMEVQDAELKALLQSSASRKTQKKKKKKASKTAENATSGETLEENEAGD

Homo sapiens [32] = organism: Homo sapiens; remark: listed apart in the source; also: assay method not described here
[33] = target: Prohibitin 1 (Homo sapiens) (UniProt P35232); also: assay method not described here
Homo sapiens [34] = organism: Homo sapiens; remark: listed apart in the source; also: assay method not described here
[35] = target: Small ribosomal subunit protein eS6 (Homo sapiens) (UniProt P62753); also: assay method not described here
[36] = target: Succinate dehydrogenase [ubiquinone] iron-sulfur subunit, mitochondrial (Homo sapiens) (UniProt P21912); also: assay method not described here
[37] = target: Exosome RNA helicase MTR4 (Homo sapiens) (UniProt P42285); also: assay method not described here
[38] = target: Solute carrier family 35 member E1 (Homo sapiens) (UniProt Q96K37); also: assay method not described here
[39] = target: FACT complex subunit SSRP1 (Homo sapiens) (UniProt Q08945); also: assay method not described here
[40] = target: TRAF family member-associated NF-kappa-B activator (Homo sapiens) (UniProt Q92844); also: assay method not described here
[41] = target: Transketolase (Homo sapiens) (UniProt P29401); also: assay method not described here
[42] = target: Transportin-3 (Homo sapiens) (UniProt Q9Y5L0); also: assay method not described here
[43] = target: Transcription intermediary factor 1-beta (Homo sapiens) (UniProt Q13263); also: assay method not described here
Chain of Transcription intermediary factor 1-beta (Homo sapiens) (Q13263 whole entry): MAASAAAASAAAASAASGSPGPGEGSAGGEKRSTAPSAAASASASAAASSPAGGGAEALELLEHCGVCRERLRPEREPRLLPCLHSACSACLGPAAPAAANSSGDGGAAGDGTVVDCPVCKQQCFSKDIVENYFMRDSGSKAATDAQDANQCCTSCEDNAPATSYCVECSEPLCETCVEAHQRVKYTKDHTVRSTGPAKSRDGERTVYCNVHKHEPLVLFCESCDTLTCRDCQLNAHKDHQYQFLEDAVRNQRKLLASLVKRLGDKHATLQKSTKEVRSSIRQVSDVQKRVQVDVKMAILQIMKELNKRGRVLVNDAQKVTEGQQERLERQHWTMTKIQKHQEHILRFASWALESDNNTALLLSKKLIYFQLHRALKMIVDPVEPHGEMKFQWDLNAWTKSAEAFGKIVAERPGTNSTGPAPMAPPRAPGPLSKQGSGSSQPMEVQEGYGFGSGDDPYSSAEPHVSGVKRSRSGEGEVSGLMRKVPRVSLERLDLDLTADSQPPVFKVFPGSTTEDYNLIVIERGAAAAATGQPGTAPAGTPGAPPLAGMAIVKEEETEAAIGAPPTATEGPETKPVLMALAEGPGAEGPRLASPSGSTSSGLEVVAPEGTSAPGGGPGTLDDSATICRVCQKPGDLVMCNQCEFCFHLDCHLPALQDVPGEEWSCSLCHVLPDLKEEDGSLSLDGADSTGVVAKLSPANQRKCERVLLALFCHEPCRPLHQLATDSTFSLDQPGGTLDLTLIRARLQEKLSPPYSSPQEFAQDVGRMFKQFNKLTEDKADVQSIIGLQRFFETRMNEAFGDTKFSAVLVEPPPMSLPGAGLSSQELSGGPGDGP

[44] = target: Gamma-tubulin complex component 2 (Homo sapiens) (UniProt Q9BSJ2); also: assay method not described here
Vinculin (Homo sapiens) = Vinculin (Homo sapiens) (UniProt P18206); also: assay method not described here
[45] = target: Protein YIPF5 (Homo sapiens) (UniProt Q969M3); also: assay method not described here
Chain of Protein YIPF5 (Homo sapiens) (Q969M3 whole entry): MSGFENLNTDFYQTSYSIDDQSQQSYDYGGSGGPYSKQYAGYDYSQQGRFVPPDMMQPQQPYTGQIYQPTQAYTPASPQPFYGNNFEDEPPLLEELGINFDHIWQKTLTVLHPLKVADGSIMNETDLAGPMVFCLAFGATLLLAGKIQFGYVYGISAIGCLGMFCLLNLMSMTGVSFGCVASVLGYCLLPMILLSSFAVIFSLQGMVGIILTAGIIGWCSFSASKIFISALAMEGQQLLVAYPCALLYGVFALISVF

`Cc1ccc(C(=O)Nc2cccc(C(F)(F)F)c2)cc1Nc1nc(-c2cccnc2)nc2c1cnn2C` gave an IC50 (Ephrin type-A receptor 5) of 0.0028 µM, an ED50 [1] of 46.5 µM and an ED50 [2] of 0.0089 µM. The ED50 [3] was 1.48 µM, the ED50 [4] was 11.6 µM and the ED50 [5] was 0.0691 µM. For the same molecule, the ED50 [6] was 46.8 µM, the ED50 [7] was 0.000606 µM and the ED50 [8] was 0.018 µM. It also gave an ED50 [9] of 39.4 µM, an ED50 (Homo sapiens [10]) of 5.49 µM and an ED50 [11] of 0.372 µM. The ED50 [12] was 0.108 µM, the ED50 [13] was 0.0241 µM and the ED50 [14] was 8.87 µM. The ED50 [15] was 0.00514 µM, the ED50 [16] was 0.0175 µM and the ED50 [17] was 3.18 µM. It also gave an ED50 [18] of 105 µM, an ED50 [19] of 6.56 µM and an ED50 [20] of 16.4 µM. For the same molecule, the ED50 (Homo sapiens [21]) was 16.8 µM, the ED50 [22] was 1.36 µM and the ED50 [23] was 0.00901 µM. It also gave an ED50 [24] of 0.772 µM, an ED50 [25] of 15.5 µM and an ED50 [26] of 0.121 µM. For the same molecule, the ED50 [27] was 5.79 µM, the ED50 [28] was 0.765 µM and the ED50 [29] was 3.17 µM. It also gave an ED50 [30] of 0.0169 µM, an ED50 [31] of 162 µM and an ED50 (Homo sapiens [32]) of 8.11 µM. It also gave an ED50 [33] of 6.34 µM, an ED50 (Homo sapiens [34]) of 3.57 µM and an ED50 [35] of 0.0144 µM. For the same molecule, the ED50 [36] was 93.1 µM, the ED50 [37] was 0.385 µM and the ED50 [38] was 0.00439 µM. It also gave an ED50 [39] of 0.00223 µM, an ED50 [40] of 13.4 µM and an ED50 [41] of 0.167 µM. For the same molecule, the ED50 [42] was 19 µM, the ED50 [43] was 59.2 µM and the ED50 [44] was 0.16 µM. It also gave an ED50 (Vinculin (Homo sapiens)) of 0.359 µM and an ED50 [45] of 1.94 µM.

Work on `Cc1ccc(C(=O)Nc2cccc(C(F)(F)F)c2)cc1Nc1nc(-c2cccnc2)nc2nn(C)cc12` yielded an IC50 (Ephrin type-A receptor 5) of 0.208 µM, an ED50 [1] of 26.6 µM and an ED50 [2] of 7.99 µM. For the same molecule, the ED50 [3] was 1.74 µM, the ED50 [4] was 0.128 µM and the ED50 [5] was 1.7 µM. For the same molecule, the ED50 [6] was 0.574 µM, the ED50 [7] was 10.1 µM and the ED50 [8] was 3.71 µM. The ED50 [9] was 15 µM, the ED50 (Homo sapiens [10]) was 0.961 µM and the ED50 [11] was 23 µM. For the same molecule, the ED50 [12] was 0.0593 µM, the ED50 [13] was 58.1 µM and the ED50 [14] was 0.546 µM. The ED50 [15] was 16.7 µM, the ED50 [16] was 0.0366 µM and the ED50 [17] was 8.73 µM. The ED50 [18] was 0.232 µM, the ED50 [19] was 0.162 µM and the ED50 [20] was 0.042 µM. The ED50 (Homo sapiens [21]) was 0.00606 µM, the ED50 [22] was 7.84 µM and the ED50 [23] was 21.8 µM. The ED50 [24] was 1.53 µM, the ED50 [25] was 0.287 µM and the ED50 [26] was 0.125 µM. The ED50 [27] was 0.0815 µM, the ED50 [28] was 0.959 µM and the ED50 [29] was 0.0517 µM. The ED50 [30] was 0.773 µM, the ED50 [31] was 0.365 µM and the ED50 (Homo sapiens [32]) was 13.1 µM. The ED50 [33] was 1.94 µM, the ED50 (Homo sapiens [34]) was 0.061 µM and the ED50 [35] was 0.061 µM. The ED50 [36] was 191 µM, the ED50 [37] was 4330 µM and the ED50 [38] was 55.3 µM. It also gave an ED50 [39] of 3.6 µM, an ED50 [40] of 0.0508 µM and an ED50 [41] of 0.151 µM. The ED50 [42] was 0.669 µM, the ED50 [43] was 0.0787 µM and the ED50 [44] was 0.0401 µM. For the same molecule, the ED50 (Vinculin (Homo sapiens)) was 68.1 µM and the ED50 [45] was 0.0595 µM.
